Test results published in patent US9067898B1, “Isothiazole derivatives as GPR120 agonists for the treatment of type II diabetes” (Janssen Pharmaceutica NV, priority 2014, dated 2015).
pEC50: −log10 of the molar value.

Molecular target: T1, Human GPR120 short form (Homo sapiens, UniProt Q5NUL3)
T1 construct: expressed in transfected cells
T1 sequence (Q5NUL3 1-361): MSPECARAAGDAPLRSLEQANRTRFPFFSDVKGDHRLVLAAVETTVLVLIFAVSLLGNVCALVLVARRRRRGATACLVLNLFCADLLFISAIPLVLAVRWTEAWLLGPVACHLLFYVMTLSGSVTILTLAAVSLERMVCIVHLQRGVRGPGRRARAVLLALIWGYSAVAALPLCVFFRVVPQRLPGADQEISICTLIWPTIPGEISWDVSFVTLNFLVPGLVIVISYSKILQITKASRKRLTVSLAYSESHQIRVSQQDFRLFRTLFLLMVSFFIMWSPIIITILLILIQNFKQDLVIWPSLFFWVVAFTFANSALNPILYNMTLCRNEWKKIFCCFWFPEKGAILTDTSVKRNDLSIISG
Assay: Human GPR120 calcium flux assay (FLIPR), Procedure Calcium A
Type: cell-based
Details: HEK-293 cells expressing human GPR120 short form, 2500 cells/well; read-out: GPR120 Ca2+ Assay A EC50
In short: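 HEK293 cells stably expressing the short isoform (NM_001195755.1), 2500/well, starved 1 h, then loaded with Fluo-4 NW plus probenecid (30 min 37 °C, 15 min RT). Compound solutions 0.012–100 μM, 0.2% DMSO final; FLIPR read 300 s after addition. EC50 from Fmax−Fmin fitted to variable-slope sigmoid (Hill <2).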

**Q.** How did the pEC50 turn out when “3-(4-[[3-(4-chlorophenyl)-5-(trifluoromethyl)-1,2-thiazol-4-yl]methoxy]-3-methylphenyl)propanoic acid [Cpd 235]” was run?
**A.** 7.30

**Q.** How did the pEC50 turn out when “3-(4-[[3-(4-ethylphenyl)-5-(trifluoromethyl)-1,2-thiazol-4-yl]methoxy]-1-benzothiophen-7-yl)propanoic acid [Cpd 92]” was run?
**A.** 7.30

**Q.** With “3-(4-[[3-(4-ethylphenyl)-5-(trifluoromethyl)-1,2-thiazol-4-yl]methoxy]-3,5-difluorophenyl)propanoic acid [Cpd 70]” as the compound, how does the pEC50 read?
**A.** 7.52

**Q.** How did the pEC50 turn out when CCc1ccc(-c2cc(F)sc2COc2ccc(CCC(=O)O)c(C)c2C)cc1 [Cpd 1, 3-(4-[[3-(4-ethylphenyl)-5-fluorothiophen-2-yl]methoxy]-2,3-dimethylphenyl)propanoic acid] was run?
**A.** 7.62

**Q.** Cc1c(CCC(=O)O)ccc(OCc2sc(F)cc2-c2ccc(Cl)cc2)c1C [Cpd 3, 3-(4-((3-(4-chlorophenyl)-5-fluorothiophen-2-yl)methoxy)-2,3-dimethylphenyl)propanoic acid] was tested. Which pEC50 did it give?
**A.** 7.31

**Q.** How did the pEC50 turn out when OCCCc1cc(F)c(OCc2c(-c3ccc4c(c3)OCO4)csc2C(F)(F)F)c(F)c1 [Cpd 37, 3-(4-((4-(benzo[d][1,3]dioxol-5-yl)-2-(trifluoromethyl)thiophen-3-yl)methoxy)-3,5-difluorophenyl)propan-1-ol] was run?
**A.** 7.03

**Q.** Cc1ccc(-c2nsc(C(F)(F)F)c2COc2c(F)cc(CCC(=O)O)cc2F)c(F)c1 [Cpd 65, 3-(3,5-difluoro-4-[[3-(2-fluoro-4-methylphenyl)-5-(trifluoromethyl)-1,2-thiazol-4-yl]methoxy]phenyl)propanoic acid] was tested. Which pEC50 did it give?
**A.** 7.89

**Q.** How did the pEC50 turn out when O=C(O)CCc1cc(F)c(OCc2c(-c3ccc(Cl)c(F)c3)nsc2C(F)(F)F)c(F)c1 [Cpd 67, 3-(4-((3-(4-chloro-3-fluorophenyl)-5-(trifluoromethyl)isothiazol-4-yl)methoxy)-3,5-difluorophenyl)propanoic acid] was run?
**A.** 7.60

**Q.** How did the pEC50 turn out when O=C(O)CCc1cc(F)c(OCc2c(C3CCCC3)nsc2C(F)(F)F)c(F)c1 [Cpd 71, 3-(4-[[3-cyclopentyl-5-(trifluoromethyl)-1,2-thiazol-4-yl]methoxy]-3,5-difluorophenyl)propanoic acid] was run?
**A.** 7.43

**Q.** With CCc1ccc(-c2nsc(C(F)(F)F)c2COc2ccc(CCC(=O)O)c(F)c2F)cc1 [Cpd 73, 3-(4-((3-(4-ethylphenyl)-5-(trifluoromethyl)isothiazol-4-yl)methoxy)-2,3-difluorophenyl)propanoic acid] as the compound, how does the pEC50 read?
**A.** 7.39

**Q.** How did the pEC50 turn out when O=C(O)CCc1cc(F)c(OCc2c(-c3ccc(Cl)cc3F)nsc2C(F)(F)F)c(F)c1 [Cpd 74, 3-(4-((3-(4-chloro-2-fluorophenyl)-5-(trifluoromethyl)isothiazol-4-yl)methoxy)-3,5-difluorophenyl)propanoic acid] was run?
**A.** 7.38

**Q.** With Cc1ccc(-c2nsc(C(F)(F)F)c2COc2c(F)cc(CC(C)C(=O)O)cc2F)c(F)c1 (stereo not shown) [Cpd 76, 3-(3,5-difluoro-4-[[3-(2-fluoro-4-methylphenyl)-5-(trifluoromethyl)-1,2-thiazol-4-yl]methoxy]phenyl)-2-methylpropanoic acid] as the compound, how does the pEC50 read?
**A.** 7.38

**Q.** O=C(O)CCc1cc(F)c(OCc2c(-c3ccc(Cl)cc3)nsc2C(F)(F)F)c(F)c1 [Cpd 79, 3-(4-[[3-(4-chlorophenyl)-5-(trifluoromethyl)-1,2-thiazol-4-yl]methoxy]-3,5-difluorophenyl)propanoic acid] was tested. Which pEC50 did it give?
**A.** 7.29

**Q.** CCc1ccc(-c2snc(Cl)c2COc2ccc(CCC(=O)O)c(C)c2C)cc1 [Cpd 85, 3-(4-[[3-chloro-5-(4-ethylphenyl)-1,2-thiazol-4-yl]methoxy]-2,3-dimethylphenyl)propanoic acid] was tested. Which pEC50 did it give?
**A.** 7.25

**Q.** How did the pEC50 turn out when OCCCc1cc(F)c(OCc2c(-c3ccc4c(c3)OCO4)nsc2C(F)(F)F)c(F)c1 [Cpd 93, 3-(4-[[3-(2H-1,3-benzodioxol-5-yl)-5-(trifluoromethyl)-1,2-thiazol-4-yl]methoxy]-3,5-difluorophenyl)propan-1-ol] was run?
**A.** 7.15

**Q.** OCCCc1cc(F)c(OCc2c(-c3ccc(Cl)cc3)nsc2C(F)(F)F)c(F)c1 [Cpd 100, 3-(4-[[3-(4-chlorophenyl)-5-(trifluoromethyl)-1,2-thiazol-4-yl]methoxy]-3,5-difluorophenyl)propan-1-ol] was tested. Which pEC50 did it give?
**A.** 7.12

**Q.** How did the pEC50 turn out when OCCCc1ccc(OCc2c(Cl)nsc2-c2ccc(Cl)cc2)c(F)c1F [Cpd 102, 3-(4-((3-chloro-5-(4-chlorophenyl)isothiazol-4-yl)methoxy)-2,3-difluorophenyl)propan-1-ol] was run?
**A.** 7.11

**Q.** How did the pEC50 turn out when CC(Cc1cc(F)c(OCc2c(-c3ccc(Cl)cc3)nsc2C(F)(F)F)c(F)c1)C(=O)O (stereo not shown) [Cpd 108, 3-(4-[[3-(4-chlorophenyl)-5-(trifluoromethyl)-1,2-thiazol-4-yl]methoxy]-3,5-difluorophenyl)-2-methylpropanoic acid] was run?
**A.** 7.05

**Q.** With O=C(O)CCc1cc(F)c(OCc2c(-c3ccc(Cl)cc3)nsc2C(F)(F)F)c(F)c1F [Cpd 116, 3-(4-((3-(4-chlorophenyl)-5-(trifluoromethyl)isothiazol-4-yl)methoxy)-2,3,5-trifluorophenyl)propanoic acid] as the compound, how does the pEC50 read?
**A.** 6.98

**Q.** Cc1c(CCC(=O)O)ccc(OCc2c(-c3ccccc3)nsc2C(F)(F)F)c1C [Cpd 134, 3-(2,3-dimethyl-4-[[3-phenyl-5-(trifluoromethyl)-1,2-thiazol-4-yl]methoxy]phenyl)propanoic acid] was tested. Which pEC50 did it give?
**A.** 6.88

**Q.** How did the pEC50 turn out when O=C(O)CCc1cc(F)c(OCc2c(-c3ccc(Cl)c(F)c3)nsc2C(F)(F)F)c(F)c1F [Cpd 138, 3-(4-((3-(4-chloro-3-fluorophenyl)-5-(trifluoromethyl)isothiazol-4-yl)methoxy)-2,3,5-trifluorophenyl)propanoic acid] was run?
**A.** 6.86

**Q.** With Cc1c(CCC(=O)O)ccc(OCc2c(-c3ccc(Cl)cc3)nsc2C(F)(F)F)c1C [Cpd 142, 3-(4-((3-(4-chlorophenyl)-5-(trifluoromethyl)isothiazol-4-yl)methoxy)-2,3-dimethylphenyl)propanoic acid] as the compound, how does the pEC50 read?
**A.** 6.81

**Q.** How did the pEC50 turn out when O=C(O)CCc1c(F)c(F)c(OCc2c(-c3ccc(Cl)cc3)nsc2C(F)(F)F)c(F)c1F [Cpd 152, 3-(4-((3-(4-chlorophenyl)-5-(trifluoromethyl)isothiazol-4-yl)methoxy)-2,3,5,6-tetrafluorophenyl)propanoic acid] was run?
**A.** 6.76

**Q.** How did the pEC50 turn out when O=C(O)CCc1cc(F)c(OCc2c(-c3ncc(Cl)cc3F)nsc2C(F)(F)F)c(F)c1 [Cpd 153, 3-(4-((3-(5-chloro-3-fluoropyridin-2-yl)-5-(trifluoromethyl)isothiazol-4-yl)methoxy)-3,5-difluorophenyl)propanoic acid] was run?
**A.** 6.76

**Q.** With CCc1cc(CCC(=O)O)ccc1OCc1c(-c2ccc(Cl)cc2)nsc1C(F)(F)F [Cpd 162, 3-(4-[[3-(4-chlorophenyl)-5-(trifluoromethyl)-1,2-thiazol-4-yl]methoxy]-3-ethylphenyl)propanoic acid] as the compound, how does the pEC50 read?
**A.** 6.69

**Q.** How did the pEC50 turn out when Cc1c(CCC(=O)O)ccc(OCc2c(-c3ncc(Cl)cc3F)nsc2C(F)(F)F)c1C [Cpd 180, 3-(4-((3-(5-chloro-3-fluoropyridin-2-yl)-5-(trifluoromethyl)isothiazol-4-yl)methoxy)-2,3-dimethylphenyl)propanoic acid] was run?
**A.** 6.57

**Q.** How did the pEC50 turn out when Cc1ccccc1-c1snc(Cl)c1COc1c(F)cc(CCC(=O)O)cc1F [Cpd 193, 3-(4-[[3-chloro-5-(2-methylphenyl)-1,2-thiazol-4-yl]methoxy]-3,5-difluorophenyl)propanoic acid] was run?
**A.** 6.46

**Q.** How did the pEC50 turn out when OCC#Cc1cc(F)c(OCc2c(-c3ccc(Cl)cc3)nsc2C(F)(F)F)c(F)c1 [Cpd 213, 3-(4-[[3-(4-chlorophenyl)-5-(trifluoromethyl)-1,2-thiazol-4-yl]methoxy]-3,5-difluorophenyl)prop-2-yn-1-ol] was run?
**A.** 6.22
